Laboratory results taken from article PMC5844530, “Fosmetpantotenate (RE-024), a phosphopantothenate replacement therapy for pantothenate kinase-associated neurodegeneration: Mechanism of action and efficacy in nonclinical models” (PLoS ONE, 2018).
Read-outs that look alike come from different tables or passages of the source.

Tests used:
[1] = male, CD-1, mouse, in vivo
Experimental: (§1) The whole blood samples (0.5 mL) were collected into syringes that were prefilled with 2.5 mL of ice-cold 0.1% formic acid in acetonitrile. The volume ratio of the whole blood to 0.1% formic acid in acetonitrile was 1/5 (v/v). Samples were frozen (-70°C) until analyzed by LC-MS/MS.
(§2) Standard curves and quality control (QC) samples were prepared fresh on the day of analysis by serial dilution of the standard mixture in quenched whole blood (1 part of blood to 5 parts of 0.1% formic acid in acetonitrile) and centrifuged. […] The frozen study samples were thawed in an ice/water bath and centrifuged. Supernatant (50 μL) from standards, QC samples, and study samples was transferred to a 96-well plate and dried completely under nitrogen. The dried residues were reconstituted with 100 μL of 0.1% formic acid in water containing internal standard (5 ng/mL of ^15N/^13C3-RE-024-02) and analyzed by LC-MS/MS.
(§3) LC-MS/MS analysis for blood pharmacokinetic samples: Samples were analyzed using an Agilent 1100 binary pump (Agilent Technologies, Santa Clara, CA, USA), connected to an AB Sciex API 6500 mass spectrometer (SCIEX, Framingham, MA, USA). An electrospray ionization source was used, scanning in the positive mode. […] The chromatography column was a Varian Metasil AQ 120–5 C18 column, 5 μm, 50 x 2.00 mm (Part No. A0530050X020) at ambient temperature, with a 0.5 mL/min flow rate and a 20 μL injection volume. Mobile phase (A) consisted of 0.1% formic acid in water; while mobile phase (B) consisted of 0.1% formic acid in acetonitrile:water (9:1, v/v).
(§4) Quantitation of in vivo samples: Peak areas were integrated using Analyst software (AB Sciex, Concord, Ontario, Canada). […] Calibration standards (at a minimum 7 per curve) were fit by linear regression with (1/x^2) weighting. QC samples were used (triplicate) at 3 concentrations for all tandem mass spectrometry (MS/MS) runs.
(§5) Pharmacokinetic calculations: PK analysis was performed using Phoenix WinNonlin®, Build 6.3.0.395 (Certara, Princeton, NJ, USA) using a non-compartmental model (PO dose = model 200 for extravascular dosing). […] Post-dose concentrations below the limit of quantitation (BLQ) were omitted from calculation.

in vivo [2] = details: male, C57Bl6, mouse, po, 700 mg/kg
Experimental: (§6) Mice were anesthetized using isoflurane (2%, 800 mL/min O2).
(§7) For oral dosing experiments, MetaQuant microdialysis probes (regenerated cellulose membrane, BrainLink, the Netherlands) were inserted into the striatum (3 mm exposed surface). Coordinates for the tips of the probes for mice were anterior-posterior (AP) = +0.8 mm from bregma, lateral (L) = -1.7 mm from midline, and ventral (V) = -4.0 mm from dura, the toothbar set at 0 mm.
(§8) Microdialysis animal dosing and sample collection: Adult non-fasted male C57Bl6 mice (20–29 g; Harlan Laboratories, Livermore, CA), and Macaca fascicularis (4–9 kg, 3–6 yr old) were used for the experiments. For oral dosing, fosmetpantotenate was formulated as a solution in 20% hydroxypropyl-beta-cyclodextrin in 50 mM citrate buffer in water pH 5.0 and administered using a dose volume of 10 mL/kg. Mice (N = 6 serially sampled) received fosmetpantotenate as a single oral dose at 700 mg/kg and monkeys received a single oral dose at either 100 mg/kg (N = 4 serially sampled) or 300 mg/kg (N = 2 serially sampled).
(§9) Microdialysis: On the morning of the microdialysis experiment, a MetaQuant probe was inserted into the guide shaft targeting the head of the caudate nucleus and perfused at a rate of 0.15 μL/min aCSF containing 0.2% (w/v) BSA, with a carrier flow of 0.8 μL/min of ultrapure water.
(§10) A single 30 min pre-dose basal dialysate sample was collected from mice over -0.5 to 0 h, and three 30 min basal samples from monkeys over -1.5 to 0 h. Fosmetpantotenate was administered at t = 0, and 30 min dialysate samples were collected for an additional 4 h for mice and 3 h for monkeys.
(§11) Sample preparation for mouse dialysate samples: Concentrations of fosmetpantotenate, PA, and PPA in mouse dialysate were determined by Nextcea, Inc, Woburn, MA, using LC-MS/MS. Standard curves and QC samples containing fosmetpantotenate (D1 and D2) and the surrogate analytes for PA and PPA (^15N/^13C3-PA and ^15N/^13C3-PPA) were prepared fresh in 0.1% formic acid in water. Frozen study mouse dialysate samples were thawed in ice/water bath. Standards, QC samples, and thawed study dialysate samples (20 μL) were mixed with 20 μL 0.1% formic acid in water containing internal standard (50 ng/mL of ^15N/^13C3-fosmetpantotenate) and analyzed by LC-MS/MS.
(§12) LC-MS/MS analysis for mouse dialysate samples: Concentrations of fosmetpantotenate, PA, and PPA in dialysate from mice were determined by using LC-MS/MS conditions described for blood PK analysis by Nextcea, except dialysate samples were analyzed using an ACIEX API 5000 and flow rate was increased to 0.6 mL/min.
(§13) Quantitation of in vivo samples: Peak areas were integrated using Analyst software (AB Sciex, Concord, Ontario, Canada). Calibration curves for all blood samples from mouse and rat PK studies and mouse dialysate samples were prepared by plotting the analyte to internal standard (^15N/^13C3-fosmetpantotenate) peak area ratio vs concentration.

[3] = Microdialysis (striatal dialysate and blood) in cynomolgus monkeys; type: in vivo, cynomolgus monkey; details: cynomolgus monkey, in vivo, po
Experimental: Monkeys were sedated by intramuscular (i.m.) ketamine administration and cannulated for intravenous (i.v.) administration of propofol infusion (initiated 15–30 min after ketamine administration). Subsequently, the animals were placed in an magnetic resonance imaging (MRI)-compatible stereotaxic frame (Kopf Model 1430), and T1 and T2 weighted scans (for up to 1 h) were carried out with a 7 cm loop-coil in a 3 Tesla Siemens Magnetom TIM Trio (Germany). To derive the coordinates, Digital Imaging and Communications in Medicine (DICOM) files were transformed into Neuroimaging Informatics Technology Initiative (NIFTI) format. NIFTI-compatible images were loaded into 3D viewer software (MRIcro version 1.40 build 1), and the stereotaxic zero in the MRI image was determined using the coordinates of the earbar-tips. Coordinates for placement of the guide cannulas were calculated for every individual animal by use of MRI images and a primate brain map.
On a separate day, microdialysis guide cannulas were placed bilaterally in the head of the caudate nucleus using the same MRI compatible stereotaxic frame (Kopf Model 1430), under isoflurane anesthesia. Prior to surgery, animals were administered ketamine (i.m.), and subsequently anesthetized with isoflurane (0.8%-2% inhalation) while artificially ventilated with O2/N2O (40/60) at 60 to 80 mL tidal volume via an intratracheal tube. During surgery, subcutaneous or i.v. fluids were provided. Animals were allowed to recover from the anesthesia in a warmed environment, single housed, and given at a minimum a 14-day post-surgery recovery time. The following medications were administered to reduce pain and inflammation, as well as reduce the chance of post-operative infection: meloxicam (Metacam 5 mg/mL, 0.2 mg/kg, buprenorphine (Temgesic, 0.3 mg/mL, 0.0038 mg/kg), enrofloxacine (25 mg/mL, 5 mg/kg), and amoxicillin (150 mg/mL, 15 mg/kg).
Samples were stored in -80°C.
From monkeys only, whole blood samples (0.5 mL) were collected from the femoral vein at -1, 0, 1, 2, and 3 h relative to dosing and transferred immediately to chilled polypropylene 15 mL vials containing 2500 μL of 0.15% formic acid in acetonitrile, mixed, and placed on dry ice. After the collections samples were stored at -80°C.
Sample preparation for monkey dialysate and blood samples: Concentrations of fosmetpantotenate (D1 and D2), PA, and PPA in monkey dialysate and blood samples were determined by Brains On-Line LLC. […] For dialysate quantitation, standards and QC samples were prepared in control dialysate (0.2% BSA in aCSF: water: 0.04% ascorbic acid in aqueous 0.02 M formic acid [4.5:24:6 v/v/v]). Standards, QC samples, and dialysate (10 μL) were mixed with 6 μL 20 mM formic acid and 0.01% ascorbic acid in water containing internal standard (10 ng/mL of ^15N/^13C3-PA) and analyzed by LC-MS/MS. Blood standards and QC samples were prepared in supernatant from control monkey blood which had been treated with 5 volumes of 0.15% formic acid in acetonitrile. Endogenous levels >LLOQ were detected for PA in control quenched blood only and quantitated at 56.56 nM based on calibration standard prepared in solvent. To compensate for endogenous PA in the calibration curve control blood, PA standard curve concentrations were spiked plus endogenous levels. Sample work-up of blood involved diluting 10 μL supernatant from study blood samples, standards, and QC samples with 90 μL of 20 mM formic acid and 0.01% ascorbic acid in water, then treating with 4 μL 20 mM formic acid and 0.01% ascorbic acid in water containing internal standard (10 ng/mL of ^15N/^13C3-PA) and analyzing by LC-MS/MS.

in vivo [4] = details: male, Sprague-Dawley, rat, po
Experimental: as §1, §2, §3, §4, §5

in vivo [5] = details: cynomolgus monkey, po, 300 mg/kg
Experimental: as §1, §2, §3, §4, §5

in vivo [6] = details: male, CD-1, mouse, po
Experimental: as §1, §2, §3, §4, §5

[7] = tested on: porcine brain endothelial cell (PBEC) co-culture model
[8] = male, Sprague-Dawley, rat, in vivo
Experimental: as §1, §2, §3, §4, §5

[9] = male, C57Bl6, mouse, in vivo, po, 700 mg/kg
Experimental: as §6, §7, §8, §9, §10, §11, §12, §13

[10] = Pharmacokinetics in whole blood, CD-1 mice; details: male, CD-1, mouse, whole blood, oral, 100 mg/kg, Conc., blood; fosmetpantotenate 100 mg/kg PO; 2 hr; individual animals
Experimental: as §1, §2, §3, §4, §5

[11] = tested on: porcine brain endothelial cell (PBEC) co-culture model; test: In vitro blood-brain barrier permeability (PBEC/rat astrocyte co-culture); details: in words
[12] = as above; details: pH 7.4, In Vitro Measured Papp, mean ± SD (n = 3)
[13] = PA Concentration in Mouse Striatal Dialysate (Corrected for Dilution)
[14] = PA Concentration in Mouse Striatal Dialysate (Corrected for Dilution), Mean

With `CC(C)(CO)[C@@H](O)C(=O)NCCC(=O)O` [PA, pantothenate] the “fold increase in AUC as dose increased from 100 to 700 mg/kg” value [1] was 3.1 fold, the “fold increase in Cmax as dose increased from 100 to 700 mg/kg” value [1] was 2.4 fold and the AUC (in vivo [2]) was 0.154 ± 0.105 µM·h. The Cmax (in vivo [2]; PA Cmax) was 88 ± 74.3 nM, the concentration at 0 h (in vivo [2]; [13]) was 52.8 nM and the concentration at 0.5 h (in vivo [2]; [13]) was 65.1 nM. For the same compound, the concentration at 1 h (in vivo [2]; [13]) was 77.7 nM, the concentration at 0 h (in vivo [2]; [14]) was 50.7 nM and the concentration at 0.5 h (in vivo [2]; [14]) was 57.7 nM. The concentration at 1 h (in vivo [2]; [14]) was 75.6 nM, the concentration at 3.5 h (in vivo [2]; [14]) was 115 nM and the concentration at 4 h (in vivo [2]; [14]) was 128 nM. The Cmax (in vivo [2]; total PA Cmax) was 130 nM, the AUC ([3]; 300 mg/kg) was 2.17 µM·h and the Cmax ([3]; 300 mg/kg) was 1300 nM. The AUC ([3]; cynomolgus, 100 mg/kg) was 0.467 ± 0.152 µM·h, the Cmax ([3]; cynomolgus, 100 mg/kg) was 255 ± 70 nM and the AUC ([3]; cynomolgus, 300 mg/kg) was 9.34 µM·h. It also gave a Cmax ([3]; cynomolgus, 300 mg/kg) of 4270 nM, an AUC (in vivo [4]; 100 mg/kg) of 8.68 µM·h and a Cmax (in vivo [4]; 100 mg/kg) of 1340 nM. For the same compound, the AUC (in vivo [4]; 300 mg/kg) was 32.5 µM·h, the Cmax (in vivo [4]; 300 mg/kg) was 4750 nM and the AUC (in vivo [4]; 700 mg/kg) was 40.1 µM·h. It also gave a Cmax (in vivo [4]; 700 mg/kg) of 7900 nM, an AUC (in vivo [5]) of 3.35 µM·h and a Cmax (in vivo [5]) of 589 nM. It also gave an AUC (in vivo [6]; 100 mg/kg) of 3.4 µM·h, a Cmax (in vivo [6]; 100 mg/kg) of 683 nM and an AUC (in vivo [6]; 300 mg/kg) of 5.76 µM·h. It also gave a Cmax (in vivo [6]; 300 mg/kg) of 771 nM, an AUC (in vivo [6]; 700 mg/kg) of 10.5 µM·h and a Cmax (in vivo [6]; 700 mg/kg) of 1610 nM. The “blood-brain barrier permeability classification” value [7] was “permeable”, the “fold increase in AUC as dose increased from 100 to 700 mg/kg” value [8] was 4.6 fold and the “fold increase in Cmax as dose increased from 100 to 700 mg/kg” value [8] was 5.9 fold. For the same compound, the “PA Concentration in Mouse Striatal Dialysate (Corrected for Dilution), Mean” value (shortened to “PA Concentration”) ([9]; 1.5 h) was 61.5 nM, the “PA Concentration” value ([9]; 2 h) was 80.7 nM and the “PA Concentration” value ([9]; 2.5 h) was 87.6 nM. For the same compound, the “PA Concentration” value ([9]; 3 h) was 95.3 nM, the Papp at 1 h (in vitro; pH 7.4, In Vitro Measured Papp) was 4.2 ± 1.3 ×10⁻⁶ cm/s and the Papp at 60 min (in vitro; pig, pH 7.4, Papp) was 5.6 ×10⁻⁶ cm/s. The concentration at 2 h [10] was 282 nM.

In the case of `C=CCN1CC[C@]23c4c5ccc(O)c4O[C@H]2C(=O)CC[C@@]3(O)[C@H]1C5` [Naloxone], the “blood-brain barrier permeability classification” value [11] is reported as “high permeability range” and the Papp at 1 h [12] is reported as 42.3 ± 11 ×10⁻⁶ cm/s.
